# Results reported in ChEMBL document CHEMBL1201862, “PubChem BioAssay data set” (2004).
# Active and inactive are the calls of the source.
# Tests used:
# Galanin receptor type 3 = biological target: T1, Galanin receptor type 3 (Homo sapiens, UniProt O60755); assay: Fluorescence-based cell-based primary high throughput dose response assay to identify antagonists of the Galanin Receptor 3 (GalR3).; assay type: functional
# T1 sequence (O60755 whole entry): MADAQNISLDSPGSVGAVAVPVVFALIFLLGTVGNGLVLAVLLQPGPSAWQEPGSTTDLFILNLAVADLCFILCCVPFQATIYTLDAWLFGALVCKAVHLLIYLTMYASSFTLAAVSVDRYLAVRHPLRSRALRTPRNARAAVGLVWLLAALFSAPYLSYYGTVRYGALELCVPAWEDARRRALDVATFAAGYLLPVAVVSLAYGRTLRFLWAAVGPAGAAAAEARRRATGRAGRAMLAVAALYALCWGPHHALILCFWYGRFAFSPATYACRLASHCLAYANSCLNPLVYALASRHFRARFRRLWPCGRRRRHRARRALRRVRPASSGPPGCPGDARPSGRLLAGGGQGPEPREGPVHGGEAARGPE
# cells = assay type: functional, cell-based; details: HEK-CNG
# [1] = biological target: T2, Corticotropin-releasing factor receptor 2/Corticotropin-releasing factor-binding protein (Homo sapiens, UniProt P24387+Q13324); assay: activators of CRF receptor 2 with binding protein – uHTS hits, confirmation (AID 602473); assay type: functional; details: read-out: EC50_Mean
# T2 sequence (Q13324 whole entry): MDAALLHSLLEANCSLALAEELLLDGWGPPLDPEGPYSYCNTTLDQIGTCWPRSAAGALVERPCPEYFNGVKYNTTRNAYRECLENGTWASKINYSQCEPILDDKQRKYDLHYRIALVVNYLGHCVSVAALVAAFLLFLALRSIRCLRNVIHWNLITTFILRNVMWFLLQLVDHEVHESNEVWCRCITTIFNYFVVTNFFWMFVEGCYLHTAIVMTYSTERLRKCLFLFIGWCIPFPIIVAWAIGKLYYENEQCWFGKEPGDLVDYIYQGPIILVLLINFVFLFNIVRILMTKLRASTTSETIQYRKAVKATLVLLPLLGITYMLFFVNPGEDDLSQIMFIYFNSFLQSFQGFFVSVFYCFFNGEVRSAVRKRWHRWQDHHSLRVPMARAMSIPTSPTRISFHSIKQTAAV
# T2 sequence (P24387 whole entry): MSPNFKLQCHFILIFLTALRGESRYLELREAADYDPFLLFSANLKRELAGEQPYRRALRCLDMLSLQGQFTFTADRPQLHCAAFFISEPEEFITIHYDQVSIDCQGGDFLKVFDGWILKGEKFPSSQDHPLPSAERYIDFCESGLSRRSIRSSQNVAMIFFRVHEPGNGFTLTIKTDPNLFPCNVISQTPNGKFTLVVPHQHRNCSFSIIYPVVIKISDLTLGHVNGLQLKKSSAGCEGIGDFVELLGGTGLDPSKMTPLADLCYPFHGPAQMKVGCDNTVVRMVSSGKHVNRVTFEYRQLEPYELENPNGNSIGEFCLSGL
# [2] = biological target: T2, Corticotropin-releasing factor receptor 2/Corticotropin-releasing factor-binding protein; assay: Dose Response confirmation of uHTS hits for small molecule antagonists of the CRF-binding protein and CRF-R2 receptor complex.; assay type: functional; details: read-out: IC50_Mean
# [3] = blockers of CRF-binding protein–CRF-R2 complex – cell-based, uHTS hits, 384-well, dose response (AID 651639); assay type: functional, Homo sapiens; details: read-out: IC50_Mean
# [4] = viability loss in HeLa cells – cytotoxicity control for MgcRacGAP inhibitor project, dose response (AID 624300); assay type: functional
# [5] = nonselective StAR promoter luciferase inhibitors – cell-based, luminescence, luciferase reporter, counter-screen for LRH-1 inverse agonist project, dose response (AID 651969); assay type: functional
# Steroidogenic factor 1 = Steroidogenic factor 1 (Homo sapiens, UniProt Q13285); assay: Counterscreen for inverse agonists of the liver receptor homolog-1 (LRH-1; NR5A2): Luminescence-based cell-based high throughput dose response assay to identify inverse agonists of the Steroidogenic Factor 1 Nuclear Receptor (SF1; NR5A1).; assay type: functional
# Chain of Steroidogenic factor 1 (Q13285 whole entry): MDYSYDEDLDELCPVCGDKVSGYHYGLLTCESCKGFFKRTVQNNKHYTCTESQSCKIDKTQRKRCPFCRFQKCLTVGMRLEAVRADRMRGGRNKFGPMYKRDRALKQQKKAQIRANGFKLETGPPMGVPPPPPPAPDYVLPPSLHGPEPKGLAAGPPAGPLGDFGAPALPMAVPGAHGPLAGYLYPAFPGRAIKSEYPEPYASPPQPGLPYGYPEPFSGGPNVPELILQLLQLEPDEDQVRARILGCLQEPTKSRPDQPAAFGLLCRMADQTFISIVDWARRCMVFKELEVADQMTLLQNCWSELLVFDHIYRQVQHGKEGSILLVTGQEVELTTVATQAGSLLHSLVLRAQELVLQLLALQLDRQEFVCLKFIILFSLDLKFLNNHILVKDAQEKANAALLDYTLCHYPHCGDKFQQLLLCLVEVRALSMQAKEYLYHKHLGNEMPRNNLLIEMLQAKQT
# [6] = biological target: Nuclear receptor subfamily 5 group A member 2 (Homo sapiens, UniProt O00482); assay type: functional, cell-based;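 also: HEK293T cells transfected with LRH-1 and a StAR promoter luciferase reporter; potency for inhibitors that lower LRH-1 driven reporter light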
# Chain of Nuclear receptor subfamily 5 group A member 2 (O00482 whole entry): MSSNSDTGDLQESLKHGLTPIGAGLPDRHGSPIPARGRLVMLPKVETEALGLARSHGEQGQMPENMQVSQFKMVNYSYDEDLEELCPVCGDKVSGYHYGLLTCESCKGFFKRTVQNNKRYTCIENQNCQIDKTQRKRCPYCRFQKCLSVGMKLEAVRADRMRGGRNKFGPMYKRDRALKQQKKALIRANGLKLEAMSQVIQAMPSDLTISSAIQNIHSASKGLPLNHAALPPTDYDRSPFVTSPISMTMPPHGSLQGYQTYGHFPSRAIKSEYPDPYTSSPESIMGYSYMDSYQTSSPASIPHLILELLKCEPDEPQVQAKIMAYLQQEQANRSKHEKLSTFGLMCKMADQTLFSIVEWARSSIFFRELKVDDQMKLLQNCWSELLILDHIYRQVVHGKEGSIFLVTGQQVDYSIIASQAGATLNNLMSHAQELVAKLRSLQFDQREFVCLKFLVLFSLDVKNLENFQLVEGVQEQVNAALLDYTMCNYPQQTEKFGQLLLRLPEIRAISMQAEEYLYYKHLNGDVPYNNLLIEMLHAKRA
# [7] = biological target: Heat shock protein HSP 90-alpha (Homo sapiens, UniProt P07900); assay type: functional, organism-based
# [8] = biological target: T3, E3 ubiquitin-protein ligase XIAP (Homo sapiens, UniProt P98170); assay: Counter Screen using XIAP-Bir3 for Chemical Antagonists of Bir1/2 domains of IAP-family anti-apoptotic proteins. [Related pubchem assays (depositor defined):AID1018, AID1449, AID1514, AID1638, AID1749, AID1750, AID488957, AID488963]
# T3 sequence (P98170 whole entry): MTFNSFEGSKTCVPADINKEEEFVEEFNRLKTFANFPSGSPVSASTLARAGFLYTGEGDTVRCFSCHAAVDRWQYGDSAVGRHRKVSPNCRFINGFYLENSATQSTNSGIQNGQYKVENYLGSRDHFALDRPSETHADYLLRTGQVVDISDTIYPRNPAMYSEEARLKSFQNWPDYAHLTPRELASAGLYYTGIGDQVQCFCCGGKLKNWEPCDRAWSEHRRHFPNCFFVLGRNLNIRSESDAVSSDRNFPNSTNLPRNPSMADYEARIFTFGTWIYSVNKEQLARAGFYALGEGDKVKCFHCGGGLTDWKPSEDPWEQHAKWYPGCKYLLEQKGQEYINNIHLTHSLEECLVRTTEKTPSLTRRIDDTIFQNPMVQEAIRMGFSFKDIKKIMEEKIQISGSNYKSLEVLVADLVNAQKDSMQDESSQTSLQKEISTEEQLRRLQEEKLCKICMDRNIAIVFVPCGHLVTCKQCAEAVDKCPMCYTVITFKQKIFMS
# [9] = biological target: T3, E3 ubiquitin-protein ligase XIAP; assay: small molecules displacing peptide from XIAP – biochemical, IAP family, fluorescence polarization (AID 1018); assay type: functional
# Leucine aminopeptidase = biological target: T4, Leucine aminopeptidase (Plasmodium falciparum 3D7, UniProt Q8IL11); assay: P. falciparum M17LAP inhibitors, primary screen, biochemical, fluorogenic H-Leu-NHMec substrate, 1536-well (AID 1619); assay type: functional
# T4 sequence (Q8IL11 whole entry): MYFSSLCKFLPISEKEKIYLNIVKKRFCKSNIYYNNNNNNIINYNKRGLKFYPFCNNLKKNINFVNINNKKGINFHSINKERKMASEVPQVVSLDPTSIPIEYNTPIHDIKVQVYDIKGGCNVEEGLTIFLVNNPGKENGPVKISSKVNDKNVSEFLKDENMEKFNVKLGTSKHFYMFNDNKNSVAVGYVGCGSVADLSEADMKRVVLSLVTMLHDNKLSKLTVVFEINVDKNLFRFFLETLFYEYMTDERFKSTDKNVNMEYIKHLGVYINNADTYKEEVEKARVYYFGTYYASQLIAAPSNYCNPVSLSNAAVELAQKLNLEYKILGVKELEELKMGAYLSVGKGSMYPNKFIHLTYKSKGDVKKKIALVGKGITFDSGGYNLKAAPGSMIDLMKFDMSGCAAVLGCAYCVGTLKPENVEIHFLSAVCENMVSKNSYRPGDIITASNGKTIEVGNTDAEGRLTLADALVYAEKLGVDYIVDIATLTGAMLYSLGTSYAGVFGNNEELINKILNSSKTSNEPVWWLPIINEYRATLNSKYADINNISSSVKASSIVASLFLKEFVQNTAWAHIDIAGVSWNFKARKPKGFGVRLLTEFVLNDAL
# [10] = biological target: T5, Calpain-2 catalytic subunit (Sus scrofa, UniProt P43367); assay: m-calpain protease blockers, concentration series – biochemical, fluorogenic peptide substrate, dose response (AID 1420); assay type: functional
# T5 sequence (P43367 whole entry): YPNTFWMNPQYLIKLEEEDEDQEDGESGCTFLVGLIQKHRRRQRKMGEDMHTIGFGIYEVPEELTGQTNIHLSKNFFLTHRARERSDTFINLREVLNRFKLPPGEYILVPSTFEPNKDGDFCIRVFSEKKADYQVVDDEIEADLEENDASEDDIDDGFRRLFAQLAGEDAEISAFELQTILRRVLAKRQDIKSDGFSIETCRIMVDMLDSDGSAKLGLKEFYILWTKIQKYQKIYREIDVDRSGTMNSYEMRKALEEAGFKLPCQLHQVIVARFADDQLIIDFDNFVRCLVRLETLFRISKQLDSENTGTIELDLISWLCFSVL
# [11] = viability of uninfected HEp-2 cells – cell-based, HTS, cytotoxicity control for RSV inhibitor project, dose response (AID 2410); assay type: functional; details: human respiratory syncytial virus
# Phospholipase A2 = Phospholipase A2 (Homo sapiens, UniProt P04054); assay type: functional;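 also: confirmatory dose-response counterscreen on phospholipase A2, testing hits that came from an ultra-high-throughput screen for ATG4B inhibitors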
# Chain of Phospholipase A2 (P04054 whole entry): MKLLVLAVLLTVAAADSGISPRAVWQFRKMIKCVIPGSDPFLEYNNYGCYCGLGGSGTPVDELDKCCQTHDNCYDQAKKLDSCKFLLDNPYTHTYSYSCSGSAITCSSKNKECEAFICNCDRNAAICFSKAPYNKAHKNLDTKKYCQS
# Cysteine protease ATG4B = biological target: T6, Cysteine protease ATG4B (Homo sapiens, UniProt Q9Y4P1); assay type: functional;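 also: Fluorescence-based dose-response confirmation assay measuring inhibition of ATG4B activity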
# T6 sequence (Q9Y4P1 whole entry): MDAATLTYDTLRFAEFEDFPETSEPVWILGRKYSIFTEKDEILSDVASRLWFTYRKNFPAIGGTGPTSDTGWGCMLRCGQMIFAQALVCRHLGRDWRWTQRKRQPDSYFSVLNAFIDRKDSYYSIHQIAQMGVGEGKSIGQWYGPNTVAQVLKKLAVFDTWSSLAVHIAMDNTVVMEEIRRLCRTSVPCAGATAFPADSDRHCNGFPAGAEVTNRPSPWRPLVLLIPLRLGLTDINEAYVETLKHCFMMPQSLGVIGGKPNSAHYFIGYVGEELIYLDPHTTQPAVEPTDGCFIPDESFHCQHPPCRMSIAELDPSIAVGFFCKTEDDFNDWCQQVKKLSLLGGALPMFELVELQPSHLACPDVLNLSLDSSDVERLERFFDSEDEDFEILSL
# Streptococcus = assay: GAS UMAA2166 growth inhibition – luminescence, BacTiterGlo, counter-screen for streptokinase expression inhibitor project, dose response (AID 1915); assay type: functional, organism-based;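 also: potency for reduction of bacterial viability or growth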
# [12] = tested on: Streptococcus sp. 'group A'; assay: Streptococcus pyogenes SK(-)GAS viability under kanamycin – luminescence, BacTiterGlo, confirmation, counter-screen for streptokinase expression inhibitor project, dose response (AID 1900); assay type: functional, organism-based
# Large T antigen = Large T antigen (Simian virus 40, UniProt P03070); assay type: functional, Betapolyomavirus macacae;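 also: Confirmatory-stage PubChem screen for compounds that inhibit SV40 T antigen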
# Chain of Large T antigen (P03070 whole entry): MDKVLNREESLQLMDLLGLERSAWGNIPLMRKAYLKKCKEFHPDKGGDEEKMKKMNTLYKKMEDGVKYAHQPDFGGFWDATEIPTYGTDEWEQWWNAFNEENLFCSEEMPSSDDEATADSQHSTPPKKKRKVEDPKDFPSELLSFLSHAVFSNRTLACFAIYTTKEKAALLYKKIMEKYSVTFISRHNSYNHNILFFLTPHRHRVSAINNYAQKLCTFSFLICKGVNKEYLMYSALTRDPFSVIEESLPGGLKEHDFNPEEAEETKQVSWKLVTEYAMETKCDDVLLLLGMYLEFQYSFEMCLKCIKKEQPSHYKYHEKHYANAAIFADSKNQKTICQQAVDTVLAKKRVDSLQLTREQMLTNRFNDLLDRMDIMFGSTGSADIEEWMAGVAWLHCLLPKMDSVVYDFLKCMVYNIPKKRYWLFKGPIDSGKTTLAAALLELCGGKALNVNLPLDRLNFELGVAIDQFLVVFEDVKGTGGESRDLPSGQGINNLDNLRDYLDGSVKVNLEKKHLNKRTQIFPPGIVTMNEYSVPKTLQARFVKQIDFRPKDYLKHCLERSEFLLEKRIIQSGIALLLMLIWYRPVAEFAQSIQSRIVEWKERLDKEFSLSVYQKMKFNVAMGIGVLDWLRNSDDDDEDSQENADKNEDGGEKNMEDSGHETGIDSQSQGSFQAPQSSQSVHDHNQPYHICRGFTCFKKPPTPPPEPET
# [13] = biological target: T7, Microphthalmia-associated transcription factor (Homo sapiens, UniProt O75030); assay: reducers of TRPM1 reporter luminescence, concentration series – cell-based, SK-MEL-5, cherry-picked, set 3, MITF inhibitor project, dose response (AID 493073); assay type: functional;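 also: SK-MEL-5 melanoma cells with luciferase driven by the MITF target TRPM1 promoter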
# T7 sequence (O75030 whole entry): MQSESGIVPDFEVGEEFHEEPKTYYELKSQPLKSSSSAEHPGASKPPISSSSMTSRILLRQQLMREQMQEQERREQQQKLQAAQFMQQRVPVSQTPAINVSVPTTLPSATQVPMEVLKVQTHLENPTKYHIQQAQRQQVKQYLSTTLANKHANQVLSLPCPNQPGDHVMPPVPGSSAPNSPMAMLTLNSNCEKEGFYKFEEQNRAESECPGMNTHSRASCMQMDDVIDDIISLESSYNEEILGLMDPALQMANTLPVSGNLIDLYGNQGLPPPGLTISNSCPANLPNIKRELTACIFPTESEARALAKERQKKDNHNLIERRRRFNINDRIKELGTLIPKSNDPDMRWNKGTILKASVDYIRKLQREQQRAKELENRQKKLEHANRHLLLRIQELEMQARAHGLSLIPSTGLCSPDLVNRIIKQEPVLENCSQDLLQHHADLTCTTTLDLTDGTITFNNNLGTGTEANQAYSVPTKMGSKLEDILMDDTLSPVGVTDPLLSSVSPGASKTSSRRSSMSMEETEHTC
# [14] = Fluorescence-based cell-based high throughput dose response assay for inhibitors of the interaction of nucleotide-binding oligomerization domain containing 2 (NOD2) and the receptor-interacting serine-threonine kinase 2 (RIPK2).; assay type: functional; details: Homo sapiens
# [15] = biological target: FAD-linked sulfhydryl oxidase ALR (Homo sapiens, UniProt P55789); assay: ALR-catalysed DTT oxidation blockers – biochemical, H2O2 detection, luminescence, cherry-pick, dose response (AID 493248)
# Chain of FAD-linked sulfhydryl oxidase ALR (P55789 whole entry): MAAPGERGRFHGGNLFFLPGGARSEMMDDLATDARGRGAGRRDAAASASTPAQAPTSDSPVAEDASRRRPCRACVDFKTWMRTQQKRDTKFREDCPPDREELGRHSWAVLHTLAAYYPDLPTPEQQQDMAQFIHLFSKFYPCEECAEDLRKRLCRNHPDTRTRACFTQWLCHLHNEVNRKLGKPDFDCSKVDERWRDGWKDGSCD
# [16] = activation of miR-122 Renilla sensor silencing – cell-based, Huh7 psiCHECK-miR122, Renilla luciferase, cherry-picked, dose response (AID 651956); assay type: functional;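 also: huh7 hepatoma cells stably carrying a psiCHECK-2 miR-122 sensor plasmid; renilla luciferase signal reporting endogenous miR-122 activity after 48 h compound exposure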
# [17] = general mammalian cell viability loss – inhibitor set, cherry-pick, set 2, cytotoxicity control for miR-122 modulator project, dose response (AID 720697); assay type: functional, cell-based
smiles,measurement,setting,value
CCOC(=O)c1[nH]c2ccc(OC)cc2c1NS(=O)(=O)c1ccc(Cl)s1,IC50,Galanin receptor type 3,1.45 µM (active)
same,EC50,cells,> 29.9 µM (inactive)
COc1cccc(NC(=O)c2cc(S(=O)(=O)N3CCc4ccccc43)cn2C)c1,EC50,[1],> 53 µM (inactive)
same,IC50,[2],< 0.368 µM (active)
same,IC50,[3],> 20 µM (inactive)
N=C(NOC(=O)N1c2ccccc2Sc2ccccc21)c1ccc(Br)cc1,CC50,[4],63.6 µM (active)
CCc1cc(=O)oc2c(C)c(OCC(=O)NCCCN3CCCC3=O)ccc12,IC50,[5],35.9 µM (inactive)
same,IC50,Steroidogenic factor 1,35.9 µM (inactive)
same,IC50,[6],35.9 µM (inactive)
CCOc1ccccc1N1CCN(C(=O)c2cccc(-c3ccc(O)cc3)c2)CC1,AC50,[7],3.3 µM (active)
same,IC50,[8],> 100 µM (inactive)
same,IC50,[9],> 100 µM (not active)
CCc1c(C)nc(SCC(=O)Nc2ccc3c(c2)OCCO3)[nH]c1=O,IC50,Steroidogenic factor 1,0.599 µM (active)
same,IC50,[6],1.54 µM (active)
same,IC50,Leucine aminopeptidase,10.2 µM (active)
CCc1c(C)nc(SCC(=O)Nc2ccc3c(c2)OCCO3)nc1O,IC50,[5],35.9 µM (inactive)
CC(C)(C)c1nc(SCC(=O)c2ccccc2)c2ccccc2n1,IC50,[10],> 50 µM (not active)
same,CC50,[11],39.5 µM (active)
same,IC50,Phospholipase A2,10.1 µM (active)
same,IC50,Cysteine protease ATG4B,15.8 µM (active)
Cn1c(C(=O)NN)cc2cc(Oc3ccccc3)ccc21,IC50,Galanin receptor type 3,8.17 µM (active)
same,EC50,cells,> 29.9 µM (inactive)
Cc1ccc(-c2nn3c(C)nnc3s2)cc1NC(=O)c1ccco1,IC50,[5],35.9 µM (inactive)
same,IC50,Steroidogenic factor 1,8.56 µM (active)
same,IC50,[6],18.3 µM (inactive)
O=[N+]([O-])c1ccc(-c2cc(O)n3nc(-c4ccc(F)cc4)cc3n2)cc1,EC50,[1],> 53 µM (inactive)
same,IC50,[2],27.4 µM (active)
same,IC50,[3],12.9 µM (active)
same,EC50,Streptococcus,6.44 µM (active)
same,EC50,[12],4.2 µM (active)
O=[N+]([O-])/C=C\c1ccc(N2CCOCC2)cc1,IC50,Large T antigen,> 100 µM (active)
same,AC50,[13],13.6 µM (active)
same,IC50,[14],4.32 µM (active)
COc1ccccc1-c1sc2cc3c(cc2c1-c1ccc(O)cc1)OCO3,AC50,[7],8.22 µM (active)
O=C(Nc1ccc(Oc2ccccc2)cc1)c1csc(COCCO)n1,IC50,Galanin receptor type 3,1.39 µM (active)
same,EC50,cells,> 29.9 µM (inactive)
Cc1nc2c(C)cccc2cc1C(=O)N/N=C/c1ccc(O)cc1,EC50,[1],> 53 µM (inactive)
same,IC50,[2],33.1 µM (active)
same,AC50,[15],0.025 µM (active)
same,IC50,[3],> 20 µM (inactive)
CN(C)c1ncnc2c1ncn2C1OC(CO)C(O)C1O (configuration not stated),AC50,[16],25.4 µM (active)
same,AC50,[17],8.52 µM (active)
